Like-named read-outs stand apart in the source and are kept apart here.
What was measured:
DLD-1 cells = test: Inhibition of proliferation, DLD-1 BRCA2 wt control (Cell Titre Glo 3D); format: cell-based; conditions: for IC50: Homo sapiens; for POLQ PD Prolif Lumin: DLD-1 BRCA2 wt control proliferation
In short: (§1)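 DLD-1 BRCA2−/− and parental DLD-1 cells exposed to 10-point dose range (10 μM to 0.51 nM, 3-fold) in RPMI/10% FBS at 37 °C, with medium and compound replenished on day 6. Viability by Cell Titre Glo 3D luminescence at day 7 (DLD-1) or day 12 (BRCA2−/−); IC50 as concentration halving maximum signal.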

DLD-1 BRCA2−/− cells = test: Homologous recombination synthetic lethal inhibition of proliferation, DLD-1 BRCA2-/- (Cell Titre Glo 3D); format: cell-based; conditions: for IC50: Homo sapiens; for POLQ PD Prolif Lumin: DLD-1 BRCA2-/- proliferation
In short: as §1

[1] = DLD-1, DLD1 BRCA2 wt, mean, read-out: POLQ PD Prolif Lumin DLD1 mean pIC50 (converted)
[2] = DLD-1, DLD-1 BRCA2 −/−, mean, read-out: POLQ PD Prolif Lumin BRCA2 −/− mean pIC50 (converted)
[3] = DLD-1, 168 h, DLD-1 BRCA2 wt cells, 7 days, read-out: POLQ PD Prolif Lumin DLD1 mean pIC50 (converted)
[4] = DLD-1, 288 h, DLD-1 BRCA2−/− cells, 12 days, read-out: POLQ PD Prolif Lumin BRCA2 −/− mean pIC50 (converted)
[5] = DLD-1, DLD-1 BRCA2 wt control proliferation, column head only partly shown, read-out: POLQ PD Prolif Lumin (converted)
[6] = DLD-1, DLD-1 BRCA2-/- proliferation, column head only partly shown, read-out: POLQ PD Prolif Lumin (converted)
[7] = DLD-1, second proliferation column (c6), taken as DLD-1 BRCA2 wt, read-out: POLQ PD Prolif Lumin (converted)
[8] = DLD-1, first proliferation column (c5), taken as DLD-1 BRCA2-/-, read-out: POLQ PD Prolif Lumin (converted)

COc1ccc(Cl)cc1Cn1c(-c2cccc(CCCC(C)C(=O)O)c2Cl)nc2c(OC3(C)CC3)ncnc21 (racemic) [Example U55, 5-(2-chloro-3-(9-(5-chloro-2-methoxybenzyl)-6-(1-methylcyclopropoxy)-9H-purin-8-yl)phenyl)-2-methylpentanoic acid]
IC50 (DLD-1 cells; [1]): > 10000 nM | IC50 (DLD-1 BRCA2−/− cells; [2]): 126 nM

COc1ccc(Cl)cc1Cn1c(-c2ccc(CCCC(C)C(=O)O)cc2Cl)nc2c(OC3(C)CC3)ncnc21 (racemic) [Example U56, 5-(3-chloro-4-(9-(5-chloro-2-methoxybenzyl)-6-(1-methylcyclopropoxy)-9H-purin-8-yl)phenyl)-2-methylpentanoic acid]
IC50 (DLD-1 cells; [1]): > 10000 nM | IC50 (DLD-1 BRCA2−/− cells; [2]): 126 nM

COc1ccc(Cl)c(F)c1Cn1c(-c2ccc(OCCC(C)C(=O)O)cc2Cl)nc2c(OC3(C)CC3)ncnc21 (racemic) [Example U57, 4-(3-chloro-4-(9-(3-chloro-2-fluoro-6-methoxybenzyl)-6-(1-methylcyclopropoxy)-9H-purin-8-yl)phenoxy)-2-methylbutanoic acid]
IC50 (DLD-1 cells; [1]): > 10000 nM | IC50 (DLD-1 BRCA2−/− cells; [2]): 126 nM

CC(C)Oc1ccc2c(c1)nc(-c1ccc(OCCC3CCCN3C)cc1Cl)n2Cc1ccccc1 (single isomer, unassigned) [Example A8, 1-benzyl-2-(2-chloro-4-(2-(1-methylpyrrolidin-2-yl)ethoxy)phenyl)-5-isopropoxy-1H-benzo[d]imidazole]
IC50 (DLD-1 cells; [3]): 501 nM | IC50 (DLD-1 BRCA2−/− cells; [4]): 126 nM

CC(C)Oc1ccc2c(c1)nc(-c1ccc(OCCC3CCCN3C)cc1Cl)n2Cc1ccccc1 (single isomer, unassigned) [Example A9, 1-benzyl-2-(2-chloro-4-(2-(1-methylpyrrolidin-2-yl)ethoxy)phenyl)-5-isopropoxy-1H-benzo[d]imidazole]
POLQ PD Prolif Lumin DLD1 mean pIC50 (DLD-1 cells; DLD-1 BRCA2 wt cells, 7 days): 6.3 | POLQ PD Prolif Lumin BRCA2 −/− mean pIC50 (DLD-1 BRCA2−/− cells; DLD-1 BRCA2−/− cells, 12 days): 6.7

CC(C)Oc1ccc2c(c1)nc(-c1ccc(OC3CCCN(C)CC3)cc1Cl)n2Cc1ccccc1 (single isomer, unassigned) [Example A10, 1-benzyl-2-(2-chloro-4-((1-methylazepan-4-yl)oxy)phenyl)-5-isopropoxy-1H-benzo[d]imidazole]
IC50 (DLD-1 cells; [3]): 2510 nM | IC50 (DLD-1 BRCA2−/− cells; [4]): 794 nM

CC(C)Oc1ccc2c(c1)nc(-c1ccc(OC3CCCN(C)CC3)cc1Cl)n2Cc1ccccc1 (single isomer, unassigned) [Example A11, 1-benzyl-2-(2-chloro-4-((1-methylazepan-4-yl)oxy)phenyl)-5-isopropoxy-1H-benzo[d]imidazole]
POLQ PD Prolif Lumin DLD1 mean pIC50 (DLD-1 cells; DLD-1 BRCA2 wt cells, 7 days): 5.8 | POLQ PD Prolif Lumin BRCA2 −/− mean pIC50 (DLD-1 BRCA2−/− cells; DLD-1 BRCA2−/− cells, 12 days): 6.1

CN1CCCC1CCOc1ccc(-c2nc3c(OC4(C)CC4)ncnc3n2Cc2ccccc2)c(Cl)c1 (single isomer, unassigned) [Example D3, 9-benzyl-8-(2-chloro-4-(2-(1-methylpyrrolidin-2-yl)ethoxy)phenyl)-6-(1-methylcyclopropoxy)-9H-purine]
POLQ PD Prolif Lumin DLD1 mean pIC50 (DLD-1 cells; DLD-1 BRCA2 wt cells, 7 days): 5.7 | IC50 (DLD-1 BRCA2−/− cells; [4]): 63.1 nM

CN1CCCC1CCOc1ccc(-c2nc3c(OC4(C)CC4)ncnc3n2Cc2ccccc2)c(Cl)c1 (single isomer, unassigned) [Example D4, 9-benzyl-8-(2-chloro-4-(2-(1-methylpyrrolidin-2-yl)ethoxy)phenyl)-6-(1-methylcyclopropoxy)-9H-purine]
POLQ PD Prolif Lumin DLD1 mean pIC50 (DLD-1 cells; DLD-1 BRCA2 wt cells, 7 days): 6.2 | POLQ PD Prolif Lumin BRCA2 −/− mean pIC50 (DLD-1 BRCA2−/− cells; DLD-1 BRCA2−/− cells, 12 days): 7.3

CN1CCCC(Oc2ccc(-c3nc4c(OC5(C)CC5)ncnc4n3Cc3ccccc3)c(Cl)c2)CC1 (single isomer, unassigned) [Example D13, 9-benzyl-8-(2-chloro-4-((1-methylazepan-4-yl)oxy)phenyl)-6-(1-methylcyclopropoxy)-9H-purine]
IC50 (DLD-1 cells; [3]): 3980 nM | IC50 (DLD-1 BRCA2−/− cells; [4]): 126 nM

CN1CCCC(Oc2ccc(-c3nc4c(OC5(C)CC5)ncnc4n3Cc3ccccc3)c(Cl)c2)CC1 (single isomer, unassigned) [Example D14, 9-benzyl-8-(2-chloro-4-((1-methylazepan-4-yl)oxy)phenyl)-6-(1-methylcyclopropoxy)-9H-purine]
POLQ PD Prolif Lumin DLD1 mean pIC50 (DLD-1 cells; DLD-1 BRCA2 wt cells, 7 days): 5.4 | POLQ PD Prolif Lumin BRCA2 −/− mean pIC50 (DLD-1 BRCA2−/− cells; DLD-1 BRCA2−/− cells, 12 days): 7.0

CC(Cc1ccccn1)n1c(-c2ccc(OCCN3CCNCC3)cc2Cl)nc2c(OC3(C)CC3)ncnc21 (single isomer, unassigned) [Example S8, 8-(2-chloro-4-(2-(piperazin-1-yl)ethoxy)phenyl)-6-(1-methylcyclopropoxy)-9-(1-(pyridin-2-yl)propan-2-yl)-9H-purine]
IC50 (DLD-1 cells; [3]): > 10000 nM | POLQ PD Prolif Lumin BRCA2 −/− mean pIC50 (DLD-1 BRCA2−/− cells; DLD-1 BRCA2−/− cells, 12 days): 5.0

Cc1cnc(Cn2c(-c3ccc(OC4CCCNCC4)cc3Cl)nc3c(OC4(C)CC4)ncnc32)s1 (single isomer, unassigned) [Example T242, 2-((8-(4-(azepan-4-yloxy)-2-chlorophenyl)-6-(1-methylcyclopropoxy)-9H-purin-9-yl)methyl)-5-methylthiazole]
IC50 (DLD-1 cells; [5]): > 10000 nM | IC50 (DLD-1 BRCA2−/− cells; [6]): 794 nM

Cc1cnc(Cn2c(-c3ccc(OC4CCCNCC4)cc3Cl)nc3c(OC4(C)CC4)ncnc32)s1 (single isomer, unassigned) [Example T243, 2-((8-(4-(azepan-4-yloxy)-2-chlorophenyl)-6-(1-methylcyclopropoxy)-9H-purin-9-yl)methyl)-5-methylthiazole]
POLQ PD Prolif Lumin (DLD-1 cells; column head only partly shown): <5.0 | POLQ PD Prolif Lumin (DLD-1 BRCA2−/− cells; column head only partly shown): 6.3

CC(COc1ccc(-c2nc3c(OC4(C)CC4)ncnc3n2Cc2cccc(Cl)c2)c(Cl)c1)CC(=O)O (single isomer, unassigned) [Example T294, 4-(3-chloro-4-(9-(3-chlorobenzyl)-6-(1-methylcyclopropoxy)-9H-purin-8-yl)phenoxy)-3-methylbutanoic acid]
IC50 (DLD-1 cells; [5]): > 10000 nM | IC50 (DLD-1 BRCA2−/− cells; [6]): 158 nM

CC(COc1ccc(-c2nc3c(OC4(C)CC4)ncnc3n2Cc2cccc(Cl)c2)c(Cl)c1)CC(=O)O (single isomer, unassigned) [Example T295, 4-(3-chloro-4-(9-(3-chlorobenzyl)-6-(1-methylcyclopropoxy)-9H-purin-8-yl)phenoxy)-3-methylbutanoic acid]
POLQ PD Prolif Lumin (DLD-1 cells; column head only partly shown): <5.0 | POLQ PD Prolif Lumin (DLD-1 BRCA2−/− cells; column head only partly shown): 6.9

CC(COc1cccc(-c2nc3c(OC4(C)CC4)ncnc3n2Cc2cccc(Cl)c2)c1Cl)CC(=O)O (single isomer, unassigned) [Example T299, 4-(2-chloro-3-(9-(3-chlorobenzyl)-6-(1-methylcyclopropoxy)-9H-purin-8-yl)phenoxy)-3-methylbutanoic acid]
IC50 (DLD-1 cells; [7]): > 10000 nM | IC50 (DLD-1 BRCA2−/− cells; [8]): 79.4 nM

Cc1cnc(Cn2c(-c3ccc(OC4CCCN(C)CC4)cc3Cl)nc3c(OC4(C)CC4)ncnc32)s1 (single isomer, unassigned) [Example T389, 2-((8-(2-chloro-4-((1-methylazepan-4-yl)oxy)phenyl)-6-(1-methylcyclopropoxy)-9H-purin-9-yl)methyl)-5-methylthiazole]
IC50 (DLD-1 cells; [7]): > 10000 nM | IC50 (DLD-1 BRCA2−/− cells; [8]): 316 nM

COc1ccc(F)cc1Cn1c(-c2cccc(OCC(C)CC(=O)O)c2Cl)nc2c(OC3(C)CC3)ncnc21 (single isomer, unassigned) [Example U77, 4-(2-chloro-3-(9-(5-fluoro-2-methoxybenzyl)-6-(1-methylcyclopropoxy)-9H-purin-8-yl)phenoxy)-3-methylbutanoic acid]
IC50 (DLD-1 cells; [1]): > 10000 nM | IC50 (DLD-1 BRCA2−/− cells; [2]): 7.94 nM

From patent US20250195530A1, “POLQ INHIBITORS” (ASTRAZENECA AB, priority 2022, published 2025)
